Source: PMC8410836, “Rational design of hyperstable antibacterial peptides for food preservation” (NPJ Science of Food, 2021)
≈ marks a conversion by molar mass, not a printed value. Where a SMILES comes first, the peptide text is derived from it. Bridges are numbered along the chain shown (N, C = ends).

Legend:
[1] = molecular target: bovine trypsin (Bos taurus, UniProt P00760); experiment: biochemical; details: SEM
Protocol: The amidase activity of trypsin and its inhibition was assayed using the chromogenic substrate BAPNA at pH 8.2 in 0.05 M Tris-HCl containing 0.02 M CaCl2 at 37 °C. The assay reaction contained 50 µL of trypsin solution (40–50 μg of trypsin in 1 mM HCl), 50 µL of water, and 125 µL of the substrate. The reaction was carried out at 37 °C for 10 min and stopped by addition of 0.25 mL of 30% acetic acid. […] The trypsin solution was incubated with an aliquot of inhibitor for 10 min at 37 °C and reaction started by the addition of 125 µL substrate and incubated at 37 °C for 10 min. […] The effect of varying substrate concentration (BAPNA) on bovine trypsin in the presence of fixed concentrations of peptides was studied. The inhibition constants (Ki) were evaluated using the double reciprocal and Dixon plot of the data[65],[66]. Data presented are averages and standard error calculated from two biological replicate experiments.

[2] = system: Micrococcus luteus ATCC4698; details: microdilution broth (CLSI, modified), Mueller-Hinton broth, 5 × 10^5 CFU/mL, 37 °C, 7–8 h, resazurin colour change; three independent experiments in triplicates
Protocol: (§1) Four Gram-positive bacteria: Listeria monocytogenes ATCC13932, Bacillus cereus ATCC11778, Staphylococcus aureus ATCC12900, and Micrococcus luteus ATCC4698 and three Gram-negative bacteria: Escherichia coli ATCC11775, Pectobacterium carotovorum MCC2112, and Salmonella typhimurium ATCC9844 were used in this study. These strains were stored at −80 °C in 25% (v/v) glycerol.
(§2) Antimicrobial assays against various bacterial cultures were done using the microdilution broth assay according to the Clinical and Laboratory Standards Institute (CLSI)[64] with some modifications. Mueller-Hinton broth was used to dilute the peptide stock and the bacterial inoculum. Inoculum was prepared from the mid-logarithmic phase culture. Each well of the microtiter plates received aliquots of 100 µL of the media containing different concentrations of peptide ranging from 0.3 to 300 µg/mL. The final concentration of bacteria in the wells was 5 × 10^5 Colony Forming Units (CFU) per mL. Ampicillin was used as positive control. For negative control, ultrapure water was used instead of peptides. Microtiter plates were incubated at 37 °C for 5–6 h with continuous shaking at 130 rpm (M. luteus cells were incubated for 7–8 h). The incubation time used for these assays was initially optimized using a 20-h incubation period. […] MIC assays were performed as three independent experiments in triplicates.

[3] = system: Salmonella typhimurium ATCC9844; details: microdilution broth, MH broth, 5 × 10^5 CFU/mL, 37 °C, 5–6 h, resazurin
Protocol: as §1, §2

[4] = system: Listeria monocytogenes ATCC13932; details: microdilution broth, MH broth, 5 × 10^5 CFU/mL, 37 °C, 5–6 h, resazurin
Protocol: as §1, §2

[5] = system: Pectobacterium carotovorum MCC2112; details: microdilution broth, MH broth, 5 × 10^5 CFU/mL, 37 °C, 5–6 h, resazurin
Protocol: as §1, §2

[6] = system: Bacillus cereus ATCC11778; details: microdilution broth, MH broth, 5 × 10^5 CFU/mL, 37 °C, 5–6 h, resazurin
Protocol: as §1, §2

[7] = system: Escherichia coli ATCC11775; details: microdilution broth, MH broth, 5 × 10^5 CFU/mL, 37 °C, 5–6 h, resazurin
Protocol: as §1, §2

[8] = system: Staphylococcus aureus ATCC12900; details: microdilution broth, MH broth, 5 × 10^5 CFU/mL, 37 °C, 5–6 h, resazurin
Protocol: as §1, §2

Chain of bovine trypsin (P00760 24-246): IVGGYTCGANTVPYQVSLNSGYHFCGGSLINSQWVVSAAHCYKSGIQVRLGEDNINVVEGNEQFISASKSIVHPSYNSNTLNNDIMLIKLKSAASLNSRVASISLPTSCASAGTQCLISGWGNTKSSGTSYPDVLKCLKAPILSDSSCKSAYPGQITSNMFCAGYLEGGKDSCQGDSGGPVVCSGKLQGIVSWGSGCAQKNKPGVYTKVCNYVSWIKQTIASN

| SMILES | Ki [1] | MIC (µg/mL) M. luteus [2] | MIC Salmonella typhimurium [3] | MIC Listeria monocytogenes [4] | MIC Pectobacterium carotovorum [5] | MIC Bacillus cereus [6] | MIC Escherichia coli [7] | MIC Staphylococcus aureus [8] |
| --- | --- | --- | --- | --- | --- | --- | --- | --- |
| CC[C@H](C)[C@H](NC(=O)[C@@H](NC(=O)[C@@H](N)CO)C(C)C)C(=O)NCC(=O)N[C@H]1CSSC[C@@H](C(=O)N[C@@H](Cc2ccccc2)C(=O)N[C@H](C(=O)N[C@@H](CCCCN)C(=O)O)C(C)C)NC(=O)[C@H]([C@@H](C)CC)NC(=O)[C@@H]2CCCN2C(=O)[C@@H]2CCCN2C(=O)[C@H]([C@@H](C)CC)NC(=O)[C@H](CO)NC(=O)[C@H](CCCCN)NC(=O)[C@H]([C@@H](C)O)NC1=O [HSEP1] (H-SVIGCTKSIPPICFVK-OH; disulfide 5-13) | 230 nM | 75 µg/mL (≈ 44.4 µM) |  |  |  |  |  |  |
| CC[C@H](C)[C@@H]1NC(=O)[C@@H]2CCCN2C(=O)[C@@H]2CCCN2C(=O)[C@H]([C@@H](C)CC)NC(=O)[C@H](CO)NC(=O)[C@H]([C@@H](C)O)NC(=O)[C@@H](NC(=O)[C@H](C)N)CSSC[C@@H](C(=O)NCC(=O)N[C@@H](CCCCN)C(=O)O)NC1=O [HSEP2-ΔHR-ΔK8] (H-ACTSIPPICGK-OH; disulfide 2-9) |  | >150 µg/mL |  |  |  |  |  |  |
| CC[C@H](C)[C@H](NC(=O)[C@@H](NC(=O)[C@@H](N)CO)C(C)C)C(=O)N[C@@H](Cc1ccccc1)C(=O)NCC(=O)N[C@H]1CSSC[C@@H](C(=O)N[C@@H](Cc2ccccc2)C(=O)N[C@H](C(=O)NCC(=O)N[C@@H](Cc2ccccc2)C(=O)O)C(C)C)NC(=O)[C@H]([C@@H](C)CC)NC(=O)[C@@H]2CCCN2C(=O)[C@@H]2CCCN2C(=O)[C@H]([C@@H](C)CC)NC(=O)[C@H](CO)NC(=O)[C@H](CCCCN)NC(=O)[C@H]([C@@H](C)O)NC1=O [HSEP2-∆K19] (H-SVIFGCTKSIPPICFVGF-OH; disulfide 6-14) | 440 nM | 25 µg/mL (≈ 13.1 µM) | >150 µg/mL | >150 µg/mL | >150 µg/mL | >150 µg/mL | >150 µg/mL | >150 µg/mL |
| CC[C@H](C)[C@H](NC(=O)[C@@H](NC(=O)[C@@H](N)CO)C(C)C)C(=O)NCC(=O)N[C@H]1CSSC[C@@H](C(=O)N[C@@H](Cc2ccccc2)C(=O)N[C@H](C(=O)N[C@@H](CCCCN)C(=O)O)C(C)C)NC(=O)[C@@H]2CCCN2C(=O)[C@H](CCCNC(=N)N)NC(=O)[C@@H]2CCCN2C(=O)[C@@H]2CCCN2C(=O)[C@H]([C@@H](C)CC)NC(=O)[C@H](CO)NC(=O)[C@H](CCCCN)NC(=O)[C@H]([C@@H](C)O)NC(=O)[C@H](Cc2c[nH]c3ccccc23)NC1=O [HVBBI, reference compound] (H-SVIGCWTKSIPPRPCFVK-OH; disulfide 5-15) | 370 nM | 150 µg/mL (≈ 74.4 µM) |  |  |  |  |  |  |
| CC[C@H](C)[C@@H]1NC(=O)[C@@H]2CCCN2C(=O)[C@@H]2CCCN2C(=O)[C@H]([C@@H](C)CC)NC(=O)[C@H](CO)NC(=O)[C@H](CCCCN)NC(=O)[C@H]([C@@H](C)O)NC(=O)[C@@H]2CSSC[C@H](NC1=O)C(=O)N[C@@H](Cc1ccccc1)C(=O)N1CCC[C@H]1C(=O)N[C@@H](CC(=O)O)C(=O)NCC(=O)N[C@@H](CCCNC(=N)N)C(=O)N2 [SFTI-cyclic, reference compound] |  | no detectable inhibitory activity |  |  |  |  |  |  |
